Assay [1] deals with lysosomal activity in THP-1 cells. Briefly: MSU-induced lysosomal activity. The assay is classed as cell-based, human. As to conditions: MSU/PLAG treated cells. Here is the method:
THP-1 cells were divided into two groups: 1) MSU treated group and 2) MSU/PLAG treated group. For MSU treated group, THP-1 cells were stimulated with monosodium urate (MSU) crystal (400 μg/ml) for 0, 10, 20, 30, 40, 50, 60 minutes. For MSU/PLAG treated group, THP-1 cells were pre-incubated with PLAG (100 μg/ml) for an hour and then stimulated with monosodium urate (MSU) crystal (400 μg/ml) for 0, 10, 20, 30, 40, 50, 60 minutes. Then, cells were harvested. (A) To detect for the P2Y6 receptor on the membrane surface, cells were fixed with 4% paraformaldehyde (Sigma-Aldrich) and incubated with PBS containing 1% BSA for blocking. They were labeled with the rabbit anti-P2Y6 receptor antibody (1:200, APR-011, Alomone Labs, Jerusalem, Israel) for 1 h. The detection Ab was used with Alexa Flour 488 goat anti-rabbit IgG (Invitrogen). (B) To detect lysosomal activity, THP-1 cells were stained with Texas red conjugated-LYSO-ID® Lysosomal Detection Kit (Enzo Life Sciences, Inc.). Finally, cells were washed with 1% FBS/PBS and mounted with DAPI-containing fluorescence microscopy mounting medium (Invitrogen). Confocal samples were analyzed with a laser scanning confocal microscope (Carl Zeiss, Oberkochen, Germany). For flow cytometric analysis, cells were washed and analyzed with a FACSVerse flow cytometer (BD Biosciences). FlowJo software (Tree Star, OR, USA) was used data processing.

Assay [2] deals with intracellular calcium in dHL-60 cells. Briefly: Fluo-4 calcium assay. Type of assay: cell-based, human. The protocol:
Human leukemia line (HL-60) cells were differentiated (dHL-60) to neutrophil-like cells in the culture medium with the addition of 1.3% DMSO (Sigma) for 5 days in a humidified atmosphere at 37° C. without changing the medium. dHL-60 cells (2×10^5 cells/mL) were loaded with 5 μM fluo-4 AM for 45 minutes and washed three times with warmed modified (37° C.) HBSS buffer (137.93 mM NaCl, 5.33 mM KCl, 2 mM CaCl2), 1 mM MgSO4, 2.38 mM HEPES, 5.5 mM glucose, pH to 7.4). The cells were seeded on black-walled 96-well plates and then treated with vehicle (0.1% DMSO), ionomycin (5 μM; positive control) or PLAG (100 μg/mL) just before measurement. Baseline fluorescence was measured before treatment, and fluorescence was read every 20 s for 700 s using an excitation wavelength of 494 nm, an emission wavelength of 516 nm in a FlexStation 3 microplate reader (Molecular Devices). Fluorescence values were reported as F/Fo according to the calculation: [ΔF=(494 nm)f/(516 nm)f−(494 nm)0/(516 nm)0]. For studies in 0 mM external calcium, the cells were loaded as mentioned earlier. After being loaded, the cells were washed four times with calcium-free HBSS. The remainder of the study was carried out in calcium-free HBSS.
(§1) HL-60 cells were differentiated (dHL-60) to neutrophil-like cells in the culture medium with the addition of 1.3% DMSO (Sigma) for 5 days in a humidified atmosphere at 37° C. without changing the medium. dHL-60 cells (2×10^5 cells/mL) were loaded with 5 μM fluo-4 AM for 45 minutes and washed three times with warmed modified (37° C.) HBSS buffer (137.93 mM NaCl, 5.33 mM KCl, 2 mM CaCl2, 1 mM MgSO4, 2.38 mM HEPES, 5.5 mM glucose, pH to 7.4). […] Baseline fluorescence was measured before treatment, and fluorescence was read every 20 seconds for 700 seconds using an excitation wavelength of 494 nm, an emission wavelength of 516 nm in a FlexStation 3 microplate reader (Molecular Devices). Fluorescence values were reported as F/Fo according to the calculation: [ΔF=(494 nm)f/(516 nm)f−(494 nm)0/(516 nm)0]. […]
as §1, with “s” for “seconds”, “Devices).” for “Devices). Fluorescence values were reported as F/Fo according to the calculation: [ΔF=(494 nm)f/(516 nm)f−(494 nm)0/(516 nm)0].”

Turning to `CCCCC/C=C\C/C=C\CCCCCCCC(=O)OC(COC(C)=O)COC(=O)CCCCCCCCCCCCCCC` (racemic) [PLAG, 1-palmitoyl-2-linoleoyl-3-acetylglycerol], in assay [1], the lysosomal activity detected entry was “about 10 minutes” and the lysosomal activity returned entry was “about 30 minutes”. Besides, in assay [2] (PLAG 100 μg/mL, ionomycin 5 μM), the “cytosolic calcium of dHL-60 cells” value is reported as “increased”. For the same molecule, the “intracellular calcium levels, co-treatment with imiquimod” value in assay [2] (vs imiquimod alone, extracellular calcium-free and containing condition) is given as “significantly increased”.
